# Patent US6313153A, “Compositions and methods for treating nephritis and inhibiting TGF -β related conditions using pyridylacrylamide derivatives” (Tsumura & Co., priority 1997, dated 2001)
# Tested on: anti-GBM nephritic mice
# Test: anti-GBM nephritic mice: proteinuria, serum cholesterol, blood urea nitrogen and serum creatinine;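 as to Proteinuria 10th day: minus not effective plus trend double p<0.05 triple p<0.01 quadruple p<0.001 improvement vs control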;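 as to Proteinuria 5th day: minus not effective plus trend double p<0.05 triple p<0.01 quadruple p<0.001 improvement vs control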;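 as to Serum Parameter BUN (blood urea nitrogen): minus not effective plus trend double p<0.05 triple p<0.01 quadruple p<0.001 improvement vs control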;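 as to Serum Parameter S-Ch (serum cholesterol): minus not effective plus trend double p<0.05 triple p<0.01 quadruple p<0.001 improvement vs control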
# Assay type: in vivo, BALB/c mice
# Details: for Total Evaluation: 3 × (number of + in proteinuria) + (number of + in serum parameter); for Proteinuria 5th day: 5th day from intravenous injection of anti-GBM serum; for Proteinuria 5th day / Proteinuria 10th day / Serum Parameter BUN (blood urea nitrogen) / Serum Parameter S-Ch (serum cholesterol) / Serum Parameter S-Cr (serum creatinine): oral; for Proteinuria 10th day: 10th day from intravenous injection of anti-GBM serum; for Serum Parameter BUN (blood urea nitrogen) / Serum Parameter S-Ch (serum cholesterol) / Serum Parameter S-Cr (serum creatinine): 11th day
# Experimental: BALB/c mice (5 weeks old, purchased from Nippon Charles Liver) were quarantined and adapted for about 1 week before subjecting to experiments. These mice were divided into several groups for the experiments so that average body weights and standard deviations were almost identical in all groups. Mouse anti-GBM (glomerular basement membrane) nephritis was caused by immunizing the mice with rabbit γ-globulin (1 mg) with Freund's complete adjuvant and intravenously injecting rabbit anti-mouse GBM serum on the fifth day from the immunization. Each compound tested was forcedly orally administered via an oral sonde almost simultaneously with the intravenous injection of the anti-GBM serum. On the 5th and 10th days from the intravenous injection, urine was taken by a plastic metabolic cage and proteinuria was measured (Ohtsuka Tonein TP2). On the 11th day, blood was taken by cutting the carotid and serum cholesterol (S--Ch), blood urea nitrogen (BUN) and serum creatinine (S--Cr) were measured by Toshiba TBA-380 autoanalyzer.
SMILES,Total Evaluation,Proteinuria 5th day,Proteinuria 10th day,Serum Parameter BUN (blood urea nitrogen),Serum Parameter S-Ch (serum cholesterol),Serum Parameter S-Cr (serum creatinine)
O=C(/C=C/c1cccnc1)NCCc1cccc(OCC(=O)NC2CCCC2)c1 [Compound 116],10,+,+,++,+,+
"CCNC(=O)Oc1cccc(CCNC(=O)/C=C/c2cccnc2)c1 [Compound 127, (E)-N-[3-[(ethylcarbamoyl)oxy]-phenethyl]-3-(3-pyridyl)-2-propenoic acid amide]",17,+++,++,-,++,-
CCNC(=O)Oc1ccc(CCN(C)C(=O)/C=C/c2cccnc2)cc1OC(=O)NCC [Compound 133],9,+,+,+,+,+
COc1ccc(CCN(C)C(=O)/C=C/c2cccnc2)cc1OC [Compound 140],14,+,++,++,++,+
"COc1ccc(C(=O)CN(C)C(=O)/C=C/c2cccnc2)cc1OC [Compound 155, (E) -N-[2-(3,4-dimethoxyphenyl)-2-oxoethyl]-N-methyl-3-(3-pyridyl)-2-propenoicacid amide]",28,++++,++++,+,+++,-
"COc1ccc(C(CN(C)C(=O)/C=C/c2cccnc2)=NO)cc1OC [Compound 156, (E)-N-[2-(3,4-dimethoxyphenyl)-2-(hydroxyimino)ethyl]-N-methyl-3-(3-pyridyl)-2-propenoic acid amide]",7,+,+,-,+,-
"COc1cc(C(O)CN(C)C(=O)/C=C/c2cccnc2)ccc1O (stereo not drawn) [Compound 158, (E)-N-[2-hydroxy-2-(3-methoxy-4-hydroxyphenyl)ethyl]-N-methyl-3-(3-pyridyl)-2-propenoic acid amide]",7,+,+,-,+,-
"CCOC(=O)COc1cccc(C(O)CNC(=O)/C=C/c2cccnc2)c1 (stereo not drawn) [Compound 159, ethyl [3-[1-hydroxy-2-((E) -3-(3-pyridyl)acryloylamino]ethyl]phenoxy]acetate]",10,++,+,-,+,-
"O=C(/C=C/c1cccnc1)NCC(=O)c1cccc(O)c1 [Compound 160, (E)-N-(3-hydroxyphenacyl)-3-(3-pyridyl)-2-propenoic acid amide]",14,+++,+,-,++,-
CCOC(=O)COc1cccc(C(=O)CNC(=O)/C=C/c2cccnc2)c1 [Compound 161],10,++,+,-,+,-
